How the values were obtained:
Human thrombin = Human thrombin (Homo sapiens (Human), UniProt P00734); test: Thrombin protease activity inhibition assay (chromogenic substrate S-2238); assay type: biochemical; conditions: 3 nM thrombin, 125 μM S-2238, 10 min pre-incubation, RT
Method in brief: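 Thrombin at 3 nM final in 0.05 M Tris pH 7.4, 0.015 M NaCl, 0.01% PEG-8000, at room temperature; compounds as ten-point three-fold dilutions.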

Human KLKB1 = Human KLKB1 (Homo sapiens (Human), UniProt P03952); test: KLKB1 kallikrein activity inhibition assay (chromogenic substrate S-2302); assay type: biochemical
Chain of Human KLKB1 (P03952 391-638 limits assumed): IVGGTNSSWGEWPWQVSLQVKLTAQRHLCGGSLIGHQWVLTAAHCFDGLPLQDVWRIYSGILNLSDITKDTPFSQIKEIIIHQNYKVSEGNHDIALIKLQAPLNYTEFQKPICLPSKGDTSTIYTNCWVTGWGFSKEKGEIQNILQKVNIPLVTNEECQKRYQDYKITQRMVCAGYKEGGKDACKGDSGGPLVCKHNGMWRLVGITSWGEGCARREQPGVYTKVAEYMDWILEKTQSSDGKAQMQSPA
Chain of Human KLKB1 (P03952 20-390 partner limits assumed): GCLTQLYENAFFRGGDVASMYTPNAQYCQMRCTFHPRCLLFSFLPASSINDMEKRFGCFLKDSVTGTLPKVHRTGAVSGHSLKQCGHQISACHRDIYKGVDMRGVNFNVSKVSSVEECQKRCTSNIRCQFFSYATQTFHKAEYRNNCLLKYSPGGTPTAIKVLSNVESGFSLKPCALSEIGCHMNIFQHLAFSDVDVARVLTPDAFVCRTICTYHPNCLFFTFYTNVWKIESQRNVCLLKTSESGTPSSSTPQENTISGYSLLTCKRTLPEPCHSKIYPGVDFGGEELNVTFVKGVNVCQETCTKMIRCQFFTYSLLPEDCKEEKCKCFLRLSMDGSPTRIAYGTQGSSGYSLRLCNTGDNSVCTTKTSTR
Experimental: The KLKB1 kallikrein activity reported herein (e.g., Tables B, C, and D) was obtained as follows. Human KLKB1 protein was obtained from Enzyme Research Labs. […] KLKB1 was assayed in buffer containing 0.05 M Tris (pH 7.4), 0.01 M NaCl and 0.2% w/v PEG-8000. The final concentration of enzyme used was 3 nM KLKB1. […] All assays were performed in 96-well microtiter plates at room temperature (RT). […] Inhibitor IC50 values were determined by adding test compound as ten point, three-fold serial dilutions in buffer solution, as known in the art. The plate was read at 10 minutes after substrate addition. The IC50 was calculated by plotting the percent (%) inhibition against compound concentration and fitting the data to a constrained four parameter sigmoidal curve, as known in the art.

[1] = 3 nM KLKB1, 250 μM S-2302, 10 min pre-incubation, RT

SMILES	IC50 (Human KLKB1; Table C)	other results
COc1ccc(C(=O)n2nc(-c3cccn(Cc4ccccn4)c3=O)cc2NCc2ccc(Cl)s2)c(OC)c1 [Cmpd 125, 3-(5-[(5-chlorothiophen-2-yl)methyl]amino-1-[(2,4-dimethoxyphenyl)carbonyl]-1H-pyrazol-3-yl)-1-(pyridin-2-ylmethyl)-1,2-dihydropyridin-2-one]		IC50 (Human thrombin): < 0.1 µM; IC50 (Human KLKB1; Table B): 1 to 10 µM
Cn1cccc(-c2cc(NCc3ccc(Cl)s3)n(C(=O)C3(COC(=O)C4(CO)CC4)CC3)n2)c1=O [Cmpd 265, 1-[(5-[(5-chlorothiophen-2-yl)methyl]amino-3-(1-methyl-2-oxo-1,2-dihydropyridin-3-yl)-1H-pyrazol-1-yl)carbonyl]cyclopropylmethyl 1-(hydroxymethyl)cyclopropane-1-carboxylate]		IC50 (Human thrombin): < 0.1 µM; IC50 (Human KLKB1; Table B): 1 to 10 µM
COCC(C)(C)C(=O)n1nc(-c2cccn(Cc3ccccn3)c2=O)cc1NCc1ccc(Cl)s1 [Cmpd 101, 3-(5-[(5-chlorothiophen-2-yl)methyl]amino-1-(3-methoxy-2,2-dimethylpropanoyl)-1H-pyrazol-3-yl)-1-(pyridin-2-ylmethyl)-1,2-dihydropyridin-2-one]		IC50 (Human thrombin): < 0.1 µM; IC50 (Human KLKB1; Table B): 10 to 100 µM
O=C(c1ccco1)n1nc(-c2cccn(Cc3ccccn3)c2=O)cc1NCc1ccccc1 [Cmpd 238, 3-[5-(benzylamino)-1-[(furan-2-yl)carbonyl]-1H-pyrazol-3-yl]-1-(pyridin-2-ylmethyl)-1,2-dihydropyridin-2-one]		IC50 (Human thrombin): < 0.1 µM; IC50 (Human KLKB1; Table B): 1 to 10 µM
CC(C)(C)C(=O)n1nc(-c2ccccn2)c(F)c1NCc1ccccc1 [Cmpd 279]		IC50 (Human KLKB1; Table B): > 100 µM
O=C(c1ccoc1)n1nc(-c2ccccc2)c(F)c1NCc1ccc(Cl)s1 [Cmpd 295]		IC50 (Human KLKB1; Table B): > 100 µM
Cc1cc(N(C)c2ccccc2Cl)nc(N[C@H]2CCc3c(N)cccc3C2)n1 [Cmpd 423, 2-N-[(2S)-5-amino-1,2,3,4-tetrahydronaphthalen-2-yl]-4-N-(2-chlorophenyl)-4-N,6-dimethylpyrimidine-2,4-diamine]		IC50 (Human KLKB1; [1]): 10 to 100 µM
COc1ccccc1C(=O)n1nc(-c2ccccc2)c(F)c1NCc1ccccc1 [Cmpd 296]		IC50 (Human KLKB1; Table B): > 100 µM
O=C(c1c(F)cccc1F)n1nc(-c2ccccn2)nc1NCc1ccccc1 [Cmpd 394]	> 100 µM	
COc1ccc(CNc2nc(-c3cccnc3)nn2C(=O)CCc2ccccc2)cc1 [Cmpd 329]	> 100 µM	
COc1ccc(CNc2nc(-c3cccnc3)nn2C(=O)CC(C)C)cc1 [Cmpd 328]	> 100 µM	
O=C(NCc1ccc2[nH]cc(Cl)c2c1)[C@H]1CC(=O)N(Cc2ccccc2)C1 [Cmpd 415, (3S)-1-benzyl-N-[(3-chloro-1H-indol-5-yl)methyl]-5-oxopyrrolidine-3-carboxamide]		IC50 (Human KLKB1; [1]): > 100 µM
O=C(c1ccccc1)n1nc(-c2cccnc2)nc1NCc1ccc(F)cc1 [Cmpd 359]	0.1 to 1 µM	
COc1ccc(CNc2nc(-c3cccnc3)nn2C(=O)C(C)(C)C)cc1 [Cmpd 326]	> 100 µM	
CCCC(=O)n1nc(-c2cccnc2)nc1NCc1ccc(F)cc1 [Cmpd 314]	10 to 100 µM	
COc1ccccc1C(=O)n1nc(C2CCOCC2)cc1NCc1ccc(Cl)s1 [Cmpd 284]		IC50 (Human KLKB1; Table B): > 100 µM
O=C(c1cccnc1)n1nc(-c2cccnc2)nc1NCc1cccs1 [Cmpd 365]	1 to 10 µM	

SMILES	IC50 (Human KLKB1; Table C)	other results
Cc1cc(N(C)c2ccc(F)cc2)nc(N[C@@H]2CCc3c(N)cccc3C2)n1 [Cmpd 421, 2-N-[(2R)-5-amino-1,2,3,4-tetrahydronaphthalen-2-yl]-4-N-(4-fluorophenyl)-4-N,6-dimethylpyrimidine-2,4-diamine]		IC50 (Human KLKB1; [1]): > 100 µM
CC(C)(C)C(=O)n1nc(-c2ccccn2)nc1NCc1ccccc1 [Cmpd 344]	10 to 100 µM	
O=C(Cc1ccccc1)n1nc(-c2ccncc2)nc1NCc1ccccc1 [Cmpd 352]	> 100 µM	
CC(C)C(=O)n1nc(-c2ccncc2)nc1NCc1ccccc1 [Cmpd 351]	1 to 10 µM	
COc1ccccc1C(=O)n1nc(-c2cccnc2)nc1SCc1ccc(F)cc1 [Cmpd 14]	0.1 to 1 µM	
CCC(=O)n1nc(-c2cccnc2)nc1NCc1ccc(F)cc1 [Cmpd 7]	10 to 100 µM	
CC(C)CC(=O)n1nc(-c2ccncc2)nc1NCc1ccccc1 [Cmpd 353]	> 100 µM	
COc1ccccc1C(=O)n1nc(-c2ncccc2F)cc1NCc1ccc(Cl)s1 [Cmpd 290]		IC50 (Human KLKB1; Table B): > 100 µM
O=C(CCc1ccccc1)n1nc(-c2cccnc2)nc1NCc1ccc(F)cc1 [Cmpd 313]	10 to 100 µM	
CC(C)CC(=O)n1nc(-c2cccnc2)nc1NCc1ccc(F)cc1 [Cmpd 312]	10 to 100 µM	
CCCC(=O)n1nc(-c2ccncc2)nc1NCc1ccccc1 [Cmpd 355]	> 100 µM	
O=C(c1ccsc1)n1nc(-c2cccnc2)nc1NCc1ccc(F)cc1 [Cmpd 377]	0.1 to 1 µM	
O=C(NCc1ccc2[nH]cc(Cl)c2c1)[C@H]1CC(=O)N(Cc2cccc(Cl)c2)C1 [Cmpd 418, (3S)-N-[(3-chloro-1H-indol-5-yl)methyl]-1-[(3-chlorophenyl)methyl]-5-oxopyrrolidine-3-carboxamide]		IC50 (Human KLKB1; [1]): > 100 µM
O=C(c1ccoc1)n1nc(-c2ccccn2)nc1NCc1ccccc1 [Cmpd 401]	> 100 µM	
CC(C)(CO)C(=O)n1nc(C2CCNCC2)c(F)c1NCc1ccc(Cl)s1 [Cmpd 274]		IC50 (Human KLKB1; Table B): 1 to 10 µM
CCCC(=O)n1nc(-c2ccncc2)nc1NCc1ccc(F)cc1 [Cmpd 317]	> 100 µM	

Further lines, with some results ahead:

IC50 (Human KLKB1; Table C)	SMILES	other results
0.1 to 1 µM	COc1ccccc1C(=O)n1nc(C2CN(C(=O)OC(C)(C)C)C2)nc1NCc1ccc(Cl)s1 [Cmpd 411]	
10 to 100 µM	O=C(CCc1ccccc1)n1nc(-c2ccccn2)nc1NCc1ccc(F)cc1 [Cmpd 305]	
10 to 100 µM	O=C(c1ccsc1)n1nc(-c2ccccn2)nc1NCc1ccccc1 [Cmpd 405]	
< 0.1 µM	COc1ccccc1C(=O)n1nc(C2CN(S(=O)(=O)N(C)C)C2)nc1NCc1ccc(Cl)s1 [Cmpd 364]	
0.1 to 1 µM	COc1ccccc1C(=O)n1nc(C2CCN(C(=O)C(C)(C)C)CC2)nc1NCc1ccc(Cl)s1 [Cmpd 341]	
1 to 10 µM	COc1ccccc1C(=O)n1nc(-c2ccccn2)nc1NCc1ccc(F)cc1 [Cmpd 367]	
> 100 µM	CC(C)(C)C(=O)n1nc(-c2cccs2)nc1NCc1ccccc1 [Cmpd 357]	
> 100 µM	COc1ccc(CNc2nc(-c3ccccn3)nn2C(=O)c2cccs2)cc1 [Cmpd 379]	
0.1 to 1 µM	COc1ccccc1C(=O)n1nc(-c2ccncn2)nc1NCc1ccccc1 [Cmpd 16]	
1 to 10 µM	COc1ccccc1C(=O)n1nc(-c2ccc(N3CCOCC3)cc2)nc1NCc1ccc(Cl)s1 [Cmpd 389]	
10 to 100 µM	CCCC(=O)n1nc(-c2ccccn2)nc1NCc1ccc(F)cc1 [Cmpd 306]	
1 to 10 µM	O=C(c1cccs1)n1nc(-c2ccccn2)nc1NCc1ccccc1 [Cmpd 404]	
0.1 to 1 µM	COc1ccccc1C(=O)n1nc(C2CCN(C(=O)OC(C)(C)C)CC2)nc1NCc1ccc(Cl)s1 [Cmpd 412]	
0.1 to 1 µM	O=C(c1ccc(Cl)cc1)n1nc(-c2ccccn2)nc1NCc1ccccc1 [Cmpd 399]	
10 to 100 µM	CC(C)C(=O)n1nc(-c2ccccn2)nc1NCc1ccc(F)cc1 [Cmpd 302]	
1 to 10 µM	COc1ccccc1C(=O)n1nc(-c2cccnc2)nc1NCc1ccc(F)cc1 [Cmpd 368]	
10 to 100 µM	CCC(=O)n1nc(-c2ccccn2)nc1NCc1ccccc1 [Cmpd 348]	
0.1 to 1 µM	O=C(c1ccsc1)n1nc(-c2ccccn2)nc1NCc1ccc(F)cc1 [Cmpd 375]	
10 to 100 µM	COc1ccc(CNc2nc(-c3ccccn3)nn2C(=O)CC(C)C)cc1 [Cmpd 322]	
